Experimental data taken from Sander's compilation of Henry's law constants (doi:10.1016/j.chroma.2014.03.040).

Test: Henry solubility constant Hcp at 298.15 K (mol/(m3 Pa))
Settings: reference: Kim and Kim (2014)

Row | Compound | Henry solubility constant Hcp
1 | Cc1ccccc1C [1,2-dimethylbenzene] | 0.0019
2 | Cc1cccc(C)c1 [1,3-dimethylbenzene] | 0.0013
3 | Cc1ccc(C)cc1 [1,4-dimethylbenzene] | 0.0013
4 | CC(C)CO [2-methyl-1-propanol] | 0.22
5 | CC(C)CC=O [3-methylbutanal] | 0.021
6 | CC(=O)CC(C)C [4-methyl-2-pentanone] | 0.039
7 | c1ccccc1 [benzene] | 0.0017
8 | CCCC=O [butanal] | 0.061
9 | CCCCOC(C)=O [butyl ethanoate] | 0.024
10 | C=Cc1ccccc1 [ethenylbenzene] | 0.0027
11 | Cc1ccccc1 [methylbenzene] | 0.0015
12 | CCCCC=O [pentanal] | 0.039
